Test results from PMC11532403 (Signal Transduction and Targeted Therapy, 2024).
Where two headings read alike, the source gives them in different places.

Key:
[1] = Phase 1 trial: plasma pharmacokinetics; assay type: in vivo; conditions: human; for AUC(0-t): read-out: AUC0–12 h mean; for MRT inf: read-out: MRTINF_obs mean
From the text: Serial plasma samples were also collected in each patient after the first dose and during multiple-dose administration on Cycle 1 Day 28.

[2] = Tissue distribution in rats; assay type: in vivo; conditions: both sexes, rat, po, 20 mg/kg gavage
From the text: The exposures in body fat, small intestine, heart, uterus, skeletal muscle, testis and brain were lower than in plasma and the rest were higher than in plasma. The highest exposures were found in the liver, stomach and lung, which were 358, 202 and 173% of plasma, respectively. […] There was no significant sex difference in the exposure of SY-5007 in rat tissues.

[3] = Plasma protein binding, rapid equilibrium dialysis; assay type: in vitro ADME; conditions: human, read-out: Plasma protein binding rate (converted)
[4] = biological target: T1, CYP2C9 (Homo sapiens, UniProt P11712); assay: CYP inhibition in human liver microsomes; assay type: in vitro ADME; conditions: 0.5-25 μM
T1 construct: substrates of different CYP450 enzymes in mixed human liver microsomes; from tissue; host or cells: mixed human liver microsomes
T1 sequence (P11712 whole entry): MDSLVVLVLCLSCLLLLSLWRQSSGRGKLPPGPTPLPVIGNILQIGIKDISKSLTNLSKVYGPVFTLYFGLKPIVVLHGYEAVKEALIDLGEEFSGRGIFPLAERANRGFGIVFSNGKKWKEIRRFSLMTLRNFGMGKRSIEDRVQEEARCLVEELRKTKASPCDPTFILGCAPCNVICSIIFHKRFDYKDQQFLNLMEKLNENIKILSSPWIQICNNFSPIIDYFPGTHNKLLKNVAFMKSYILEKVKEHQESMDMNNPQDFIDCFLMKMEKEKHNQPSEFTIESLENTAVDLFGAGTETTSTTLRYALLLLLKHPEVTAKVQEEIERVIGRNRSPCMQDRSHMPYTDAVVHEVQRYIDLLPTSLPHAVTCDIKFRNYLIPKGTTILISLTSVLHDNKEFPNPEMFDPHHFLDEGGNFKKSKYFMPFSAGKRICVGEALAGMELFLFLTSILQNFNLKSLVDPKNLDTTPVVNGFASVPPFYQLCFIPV

[5] = tested on: CYP3A4; assay: CYP induction in hepatocytes; assay type: in vitro ADME, human; conditions: 1, 5, 50 μM, three donors
[6] = 20 mg, Cycle 1 Day 1, 20 mg BID (n = 1)
[7] = 20 mg, Cycle 1 Day 1, 20 mg QD (n = 1)
[8] = 40 mg, Cycle 1 Day 1, 40 mg BID (n = 3)
[9] = 80 mg, Cycle 1 Day 1, 80 mg BID (n = 3)
[10] = 120 mg, Cycle 1 Day 1, 120 mg BID (n = 3)
[11] = 160 mg, Cycle 1 Day 1, 160 mg BID (n = 23)
[12] = 160 mg, Cycle 1 Day 28, 160 mg BID (n = 15)
[13] = 200 mg, Cycle 1 Day 28, 200 mg BID (n = 5)
[14] = oral, 20 mg, Cycle 1 Day 28, 20 mg BID (n = 1)
[15] = oral, 20 mg, Cycle 1 Day 28, 20 mg QD (n = 1)
[16] = oral, 40 mg, Cycle 1 Day 28, 40 mg BID (n = 3)
[17] = oral, 80 mg, Cycle 1 Day 28, 80 mg BID (n = 3)
[18] = oral, 120 mg, Cycle 1 Day 28, 120 mg BID (n = 3)
[19] = oral, 200 mg, Cycle 1 Day 1, 200 mg BID (n = 9)

## COc1ccc(CN2C3CC2CN(c2ccc(-c4cc(N5CC(C)(O)C5)cn5ncc(C#N)c45)cn2)C3)cn1 [SY-5007, 6-(3-hydroxy-3-methylazetidin-1-yl)-4-(6-(6-((6-methoxypyridin-3-yl)methyl)-3,6-diazabicyclo[3.1.1]heptan-3-yl)pyridin-3-yl)pyrazolo[1,5-a]pyridine-3-carbonitrile]
[1]; [6]
  AUC(0-t): 1580 ng·h/mL
  MRT inf: 16.7 h
[1]; 20 mg, Cycle 1 Day 1, 20 mg BID (n = 1), read-out: AUCINF_obs mean
  AUC(0-inf): 3830 ng·h/mL
[1]; 20 mg, Cycle 1 Day 1, 20 mg BID (n = 1), read-out: Cmax mean
  Cmax: 214 ng/mL
[1]; 20 mg, Cycle 1 Day 1, 20 mg BID (n = 1), read-out: T1/2 mean (converted)
  half-life: 12.1 h
[1]; 20 mg, Cycle 1 Day 1, 20 mg BID (n = 1), read-out: Tmax mean
  Tmax: 4 h
[1]; [7]
  AUC(0-t): 2230 ng·h/mL
  MRT inf: 7.7 h
[1]; 20 mg, Cycle 1 Day 1, 20 mg QD (n = 1), read-out: AUCINF_obs mean
  AUC(0-inf): 2410 ng·h/mL
[1]; 20 mg, Cycle 1 Day 1, 20 mg QD (n = 1), read-out: Cmax mean
  Cmax: 391 ng/mL
[1]; 20 mg, Cycle 1 Day 1, 20 mg QD (n = 1), read-out: T1/2 mean (converted)
  half-life: 6.8 h
[1]; 20 mg, Cycle 1 Day 1, 20 mg QD (n = 1), read-out: Tmax mean
  Tmax: 1 h
[1]; [8]
  AUC(0-t): 2720 ng·h/mL
  MRT inf: 8.9 h
[1]; 40 mg, Cycle 1 Day 1, 40 mg BID (n = 3), read-out: AUCINF_obs mean
  AUC(0-inf): 3760 ng·h/mL
[1]; 40 mg, Cycle 1 Day 1, 40 mg BID (n = 3), read-out: Cmax mean
  Cmax: 714 ng/mL
[1]; 40 mg, Cycle 1 Day 1, 40 mg BID (n = 3), read-out: T1/2 mean (converted)
  half-life: 8.7 h
[1]; 40 mg, Cycle 1 Day 1, 40 mg BID (n = 3), read-out: Tmax mean
  Tmax: 0.5 h
[1]; [9]
  AUC(0-t): 5150 ng·h/mL
  MRT inf: 12.4 h
[1]; 80 mg, Cycle 1 Day 1, 80 mg BID (n = 3), read-out: AUCINF_obs mean
  AUC(0-inf): 7220 ng·h/mL
[1]; 80 mg, Cycle 1 Day 1, 80 mg BID (n = 3), read-out: Cmax mean
  Cmax: 1450 ng/mL
[1]; 80 mg, Cycle 1 Day 1, 80 mg BID (n = 3), read-out: T1/2 mean (converted)
  half-life: 37.8 h
[1]; 80 mg, Cycle 1 Day 1, 80 mg BID (n = 3), read-out: Tmax mean
  Tmax: 0.5 h
[1]; [10]
  AUC(0-t): 9270 ng·h/mL
  MRT inf: 11.6 h
[1]; 120 mg, Cycle 1 Day 1, 120 mg BID (n = 3), read-out: AUCINF_obs mean
  AUC(0-inf): 14100 ng·h/mL
[1]; 120 mg, Cycle 1 Day 1, 120 mg BID (n = 3), read-out: Cmax mean
  Cmax: 2470 ng/mL
[1]; 120 mg, Cycle 1 Day 1, 120 mg BID (n = 3), read-out: T1/2 mean (converted)
  half-life: 44.4 h
[1]; 120 mg, Cycle 1 Day 1, 120 mg BID (n = 3), read-out: Tmax mean
  Tmax: 0.5 h
[1]; [11]
  AUC(0-t): 16700 ng·h/mL
  MRT inf: 8.2 h
[1]; 160 mg, Cycle 1 Day 1, 160 mg BID (n = 23), read-out: AUCINF_obs mean
  AUC(0-inf): 21300 ng·h/mL
[1]; 160 mg, Cycle 1 Day 1, 160 mg BID (n = 23), read-out: Cmax mean
  Cmax: 3470 ng/mL
[1]; 160 mg, Cycle 1 Day 1, 160 mg BID (n = 23), read-out: T1/2 mean (converted)
  half-life: 10.8 h
[1]; 160 mg, Cycle 1 Day 1, 160 mg BID (n = 23), read-out: Tmax mean
  Tmax: 1 h
[1]; [12]
  AUC(0-t): 36800 ng·h/mL
  MRT inf: 13.9 h
[1]; 160 mg, Cycle 1 Day 28, 160 mg BID (n = 15), read-out: AUCINF_obs mean
  AUC(0-inf): 67200 ng·h/mL
[1]; 160 mg, Cycle 1 Day 28, 160 mg BID (n = 15), read-out: Cmax mean
  Cmax: 4730 ng/mL
[1]; 160 mg, Cycle 1 Day 28, 160 mg BID (n = 15), read-out: T1/2 mean (converted)
  half-life: 9 h
[1]; 160 mg, Cycle 1 Day 28, 160 mg BID (n = 15), read-out: Tmax mean
  Tmax: 2 h
[1]; [13]
  AUC(0-t): 41100 ng·h/mL
  MRT inf: 10.8 h
[1]; 200 mg, Cycle 1 Day 28, 200 mg BID (n = 5), read-out: AUCINF_obs mean
  AUC(0-inf): 63700 ng·h/mL
[1]; 200 mg, Cycle 1 Day 28, 200 mg BID (n = 5), read-out: Cmax mean
  Cmax: 5520 ng/mL
[1]; 200 mg, Cycle 1 Day 28, 200 mg BID (n = 5), read-out: T1/2 mean (converted)
  half-life: 7 h
[1]; 200 mg, Cycle 1 Day 28, 200 mg BID (n = 5), read-out: Tmax mean
  Tmax: 2 h
[1]; [14]
  AUC(0-t): 2940 ng·h/mL
  MRT inf: 9 h
[1]; oral, 20 mg, Cycle 1 Day 28, 20 mg BID (n = 1), read-out: AUCINF_obs mean
  AUC(0-inf): 4020 ng·h/mL
[1]; oral, 20 mg, Cycle 1 Day 28, 20 mg BID (n = 1), read-out: Cmax mean
  Cmax: 640 ng/mL
[1]; oral, 20 mg, Cycle 1 Day 28, 20 mg BID (n = 1), read-out: T1/2 mean (converted)
  half-life: 7.3 h
[1]; oral, 20 mg, Cycle 1 Day 28, 20 mg BID (n = 1), read-out: Tmax mean
  Tmax: 0.5 h
[1]; [15]
  AUC(0-t): 2200 ng·h/mL
  MRT inf: 7.7 h
[1]; oral, 20 mg, Cycle 1 Day 28, 20 mg QD (n = 1), read-out: AUCINF_obs mean
  AUC(0-inf): 2340 ng·h/mL
[1]; oral, 20 mg, Cycle 1 Day 28, 20 mg QD (n = 1), read-out: Cmax mean
  Cmax: 388 ng/mL
[1]; oral, 20 mg, Cycle 1 Day 28, 20 mg QD (n = 1), read-out: T1/2 mean (converted)
  half-life: 6 h
[1]; oral, 20 mg, Cycle 1 Day 28, 20 mg QD (n = 1), read-out: Tmax mean
  Tmax: 1 h
[1]; [16]
  AUC(0-t): 5810 ng·h/mL
  MRT inf: 6.8 h
[1]; oral, 40 mg, Cycle 1 Day 28, 40 mg BID (n = 3), read-out: AUCINF_obs mean
  AUC(0-inf): 7100 ng·h/mL
[1]; oral, 40 mg, Cycle 1 Day 28, 40 mg BID (n = 3), read-out: Cmax mean
  Cmax: 1280 ng/mL
[1]; oral, 40 mg, Cycle 1 Day 28, 40 mg BID (n = 3), read-out: T1/2 mean (converted)
  half-life: 5 h
[1]; oral, 40 mg, Cycle 1 Day 28, 40 mg BID (n = 3), read-out: Tmax mean
  Tmax: 0.5 h
[1]; [17]
  AUC(0-t): 12600 ng·h/mL
  MRT inf: 8.2 h
[1]; oral, 80 mg, Cycle 1 Day 28, 80 mg BID (n = 3), read-out: AUCINF_obs mean
  AUC(0-inf): 18800 ng·h/mL
[1]; oral, 80 mg, Cycle 1 Day 28, 80 mg BID (n = 3), read-out: Cmax mean
  Cmax: 1960 ng/mL
[1]; oral, 80 mg, Cycle 1 Day 28, 80 mg BID (n = 3), read-out: T1/2 mean (converted)
  half-life: 5.5 h
[1]; oral, 80 mg, Cycle 1 Day 28, 80 mg BID (n = 3), read-out: Tmax mean
  Tmax: 1 h
[1]; [18]
  AUC(0-t): 21500 ng·h/mL
  MRT inf: 10.5 h
[1]; oral, 120 mg, Cycle 1 Day 28, 120 mg BID (n = 3), read-out: AUCINF_obs mean
  AUC(0-inf): 34000 ng·h/mL
[1]; oral, 120 mg, Cycle 1 Day 28, 120 mg BID (n = 3), read-out: Cmax mean
  Cmax: 2870 ng/mL
[1]; oral, 120 mg, Cycle 1 Day 28, 120 mg BID (n = 3), read-out: T1/2 mean (converted)
  half-life: 7 h
[1]; oral, 120 mg, Cycle 1 Day 28, 120 mg BID (n = 3), read-out: Tmax mean
  Tmax: 1 h
[1]; [19]
  AUC(0-t): 14900 ng·h/mL
  MRT inf: 15 h
[1]; oral, 200 mg, Cycle 1 Day 1, 200 mg BID (n = 9), read-out: AUCINF_obs mean
  AUC(0-inf): 21600 ng·h/mL
[1]; oral, 200 mg, Cycle 1 Day 1, 200 mg BID (n = 9), read-out: Cmax mean
  Cmax: 3180 ng/mL
[1]; oral, 200 mg, Cycle 1 Day 1, 200 mg BID (n = 9), read-out: T1/2 mean (converted)
  half-life: 23.9 h
[1]; oral, 200 mg, Cycle 1 Day 1, 200 mg BID (n = 9), read-out: Tmax mean
  Tmax: 1 h
[1]; oral, single dose, 20 mg to 160 mg, read-out: AUCINF_obs range
  AUC(0-inf): 2410 to 21300 ng·h/mL
[1]; oral, single dose, 20 mg to 160 mg, read-out: Cmax range
  Cmax: 214 to 3470 ng/mL
[1]; oral, single dose, read-out: Mean T1/2 across dose cohorts
  half-life: 6.8 to 44.4 h
[1]; oral, single dose, read-out: Mean Tmax across dose cohorts
  Tmax: 0.5 to 4 h
[2]; brain, read-out: Brain exposure (AUC0~24h)
  Kp: 0.00195
[2]; liver, read-out: Liver exposure (AUC0~24h)
  Kp: 3.58
[2]; lung, read-out: Lung exposure (AUC0~24h)
  Kp: 1.73
[2]; stomach, read-out: Stomach exposure (AUC0~24h)
  Kp: 2.02
[3]
  fraction unbound: 0.061
[4]
  IC50: 6.68 µM
[5]
  CYP3A4 induction: no induction
